Where only a bound is given, the exact number is not on record here.

Data set [1] is described as follows: Plasma protein binding in human assessed as percent bound at 5 uM incubated for 6 hrs by equilibrium dialysis based HPLC analysis.
Data set [2] is described as follows: Plasma protein binding in mouse assessed as bound fraction at 5 uM incubated for 6 hrs by equilibrium dialysis based HPLC analysis.
The nature of data set [3]: Plasma protein binding in mouse assessed as unbound fraction at 5 uM incubated for 6 hrs by equilibrium dialysis based HPLC analysis. Type of data set: ADME, cell-free.
Data set [4] can be described thus: Plasma protein binding in human assessed as unbound fraction at 5 uM incubated for 6 hrs by equilibrium dialysis based HPLC analysis. Type of data set: ADME, cell-free.
Data set [5] in a line: Unbound fraction in rat brain at 5 uM incubated for 6 hrs by equilibrium dialysis based HPLC analysis. It counts as ADME, tissue-based.
Data set [6] is described as follows: Unbound fraction in mouse brain at 5 uM incubated for 6 hrs by equilibrium dialysis based HPLC analysis. It counts as ADME, tissue-based.
Data set [7] is described as follows: Cmax in CD-1 mouse at 10 mg/kg, po measured up to 24 hrs by LC-MS/MS analysis. It counts as ADME, organism-based. The settings on record: in vivo.
Data set [8] is described as follows: AUC in CD-1 mouse at 10 mg/kg, po measured up to 24 hrs by LC-MS/MS analysis. It counts as ADME, organism-based. The note with it: in vivo.
Data set [9] is described as follows: Cmax in CD-1 mouse at 10 mg/kg, ip measured up to 24 hrs by LC-MS/MS analysis. Type of data set: ADME, organism-based. The settings on record: in vivo.
Data set [10] can be described thus: AUC in CD-1 mouse at 10 mg/kg, ip measured up to 24 hrs by LC-MS/MS analysis. Type of data set: ADME, organism-based. The note with it: in vivo.

For `CC(C)(C)OC(=O)Nc1ccc(Cl)c(C(=O)Nc2ncc(C#Cc3ccccc3)cc2F)c1`, the results for the “plasma protein binding (% bound)” value in data set [1] and in data set [2] were 99.8% and 98.9%, respectively.

In the case of `CC(C)(C)OC(=O)Nc1ccc(Cl)c(C(=O)Nc2ncc(C#Cc3ccccc3)cc2Cl)c1`, the free fraction (fraction unbound) at 6 h, 5 µM in data set [3] was more than 0.999.

Take `Cc1cc(C#Cc2cccc(F)c2)cnc1NC(=O)c1cc(NC(=O)OC(C)(C)C)ccc1Cl`: the fraction unbound at 6 h, 5 µM in data set [4] and in data set [3] was more than 0.999 each time.

Consider `Cc1cc(C#Cc2ccc(F)cc2)cnc1NC(=O)c1cc(NC(=O)OC(C)(C)C)ccc1Cl`, for which the unbound share (fraction unbound) at 6 h, 5 µM in data set [5] is more than 0.999; in [6] it was 0.994. Besides, the peak concentration (Cmax) came to 0.252 µM in [7] and 0.888 µM in [9]. Moreover, the exposure (AUC) at 24 h in data set [8] was determined as 2.27 µM·h; in data set [10], 12.3 µM·h.

With `Cc1cc(C#Cc2ccccc2)cnc1NC(=O)c1cc(NC(=O)OC(C)(C)C)ccc1Cl`, the “plasma protein binding (% bound)” value in data set [1] came to 99.5%; in [2], 98.7%.

These data come from ChEMBL document CHEMBL6134922 (ACS Med Chem Lett, 2025).
